The values that follow come from patent publication EP4541796A1, “EXATECAN DERIVATIVES AND USE THEREOF” (Hangzhou Adcoris Biopharma Co., Ltd, priority 2022, dated 2024).

Experiment [1] deals with breast adenocarcinoma cells SK-BR-3. Briefly: In vitro inhibitory activity of compounds (small molecule toxins), CCK-8 cell growth assay. The settings on record: Homo sapiens; Inhibitory activity against SK-BR-3; small molecules, 72 h incubation. Type of experiment: cell-based. The procedure:
(§1) Human esophageal cancer cells OE33, and human breast adenocarcinoma cells SK-BR-3 were cultured in RPMI1640 (Cellmax) containing 10% fetal bovine serum (Cellmax), respectively. Cells in the exponential growth phase were diluted to a concentration of 1×10^5cells/mL by culture medium and added to 96-well cell culture plates at 100µL per well, then incubated overnight in a 37°C incubator with 5% CO2. On the following day, the small molecules were diluted with culture medium to 10,000 nM, 2,000 nM, 400 nM, 80 nM, 16 nM, 3.2 nM, 0.64 nM, 0.13 nM, respectively, and the diluted compounds were added to 96-well cell culture plates at 2 µL per well, with three replicate wells set-up for each concentration, and for the negative and blank control groups, in which the compounds had not been added, 2 µL of dilution was added per well. After the addition, the plates were returned to the 37°C incubator with 5% CO2 to continue incubation for 72 h. After incubation, the cell culture plates were removed, and the culture medium was aspirated using a pipette. Then, 100µL of culture medium containing 10% CCK-8 was added to each well, and the plates were incubated at 37°C for 3 hours. After incubation, the plates were removed, kept in the dark, and placed in ELISAplate. Absorbance was measured at 630nm as the reference wavelength and 450nm as the test wavelength. The IC50 values (Tables 1-3) were calculated using the four-parameter logistic regression method in GraphPad, based on the absorbance values. DNA topoisomerase I inhibitor Dxd was used as positive control drug.

For experiment [2], the system named is esophageal cancer cells OE33. The description is as above. Type of experiment: cell-based. Particulars: Homo sapiens. The procedure:
as §1

Where [3] appears, read: Inhibitory activity against OE33, small molecules, 72 h incubation, read-out: IC50/nM.
The mark [4] stands for this setting: OE33 cells, read-out: IC50 values for inhibiting the growth of esophageal cancer cells.

Read-outs that look alike come from different tables or passages of the source.

In the case of `CC[C@@]1(O)C(=O)OCc2c1cc1n(c2=O)Cc2c-1nc1cc(F)c(C)c3c1c2[C@@H](NC(=O)NN)CC3` [Compound 1, Exatecan-N-aminourea], the IC50 in experiment [1] and in experiment [2] (setting [3]) was 50 to 100 nM throughout.
`CC[C@@]1(O)C(=O)OCc2c1cc1n(c2=O)Cc2c-1nc1cc(F)c(C)c3c1c2[C@@H](NC(=O)N(C)N)CC3` [Compound 2, Exatecan-N-methyl-N-aminourea]: the IC50 is below 50 nM in experiment [2] (setting [3]) and below 10 nM in experiment [2] (setting [4]).
In the case of `CC[C@@]1(O)C(=O)OCc2c1cc1n(c2=O)Cc2c-1nc1cc(F)c(C)c3c1c2[C@@H](NC(=O)N(C)NC)CC3` [Compound 3, Exatecan-N',N-dimethylaminourea], the IC50 was below 50 nM in experiment [1], below 50 nM in experiment [2] (setting [3]) and below 10 nM in experiment [2] (setting [4]).
`CC[C@@]1(O)C(=O)OCc2c1cc1n(c2=O)Cc2c-1nc1cc(F)c(C)c3c1c2[C@@H](NC(=O)C(=O)NN)CC3` [Compound 4, Exatecan-N'-amino oxalyldiamine]: the IC50 in experiment [1] and in experiment [2] (setting [3]) was 50 to 100 nM throughout.
With `CC[C@@]1(O)C(=O)OCc2c1cc1n(c2=O)Cc2c-1nc1cc(F)c(C)c3c1c2[C@@H](NC(=O)C(=O)N(C)N)CC3` [Compound 5, Exatecan N'-amino-N-methyloxalyldiamine], the figures for the IC50 in experiment [1] and in experiment [2] (setting [3]) were below 50 nM and 50 to 100 nM, respectively.
As to `CC[C@@]1(O)C(=O)OCc2c1cc1n(c2=O)Cc2c-1nc1cc(F)c(C)c3c1c2[C@@H](NC(=O)CNO)CC3` [Compound 6, 2-hydroxyaminoacetyl exatecan], in experiment [2] (setting [3]), the IC50 lay in the range of 50 to 100 nM.
In the case of `CC[C@@]1(O)C(=O)OCc2c1cc1n(c2=O)Cc2c-1nc1cc(F)c(C)c3c1c2[C@@H](NC(=O)CNOC)CC3` [Compound 7, 2-methoxyaminoacetyl exatecan], the IC50 in experiment [2] (setting [3]) is below 50 nM; in experiment [2] (setting [4]), below 10 nM.
Turning to `CC[C@@]1(O)C(=O)OCc2c1cc1n(c2=O)Cc2c-1nc1cc(F)c(C)c3c1c2[C@@H](NC(=O)CONC)CC3` [Compound 8, 2-methylaminooxyacetyl exatecan], the IC50 in experiment [1] was below 50 nM; in experiment [2] (setting [3]), below 50 nM; in experiment [2] (setting [4]), below 10 nM.
Take `CC[C@@]1(O)C(=O)OCc2c1cc1n(c2=O)Cc2c-1nc1cc(F)c(C)c3c1c2[C@@H](NC(=O)CN(C)N)CC3` [Compound 9, 2-N-methyl-N-aminoacetyl exatecan]: the IC50 is below 50 nM in experiment [2] (setting [3]) and below 10 nM in experiment [2] (setting [4]).
In the case of `CC[C@@]1(O)C(=O)OCc2c1cc1n(c2=O)Cc2c-1nc1cc(F)c(C)c3c1c2[C@@H](NC(=O)CN(C)NC)CC3` [Compound 10, 2-N-methyl-N-methylaminoacetyl exatecan], the IC50 in experiment [2] (setting [3]) was in the range of 50 to 100 nM.
In the case of `CC[C@@]1(O)C(=O)OCc2c1cc1n(c2=O)Cc2c-1nc1cc(F)c(C)c3c1c2[C@@H](NC(=O)CN(C)O)CC3` [Compound 11, 2-N-methylhydroxyaminoacetyl exatecan], the IC50 in experiment [2] (setting [3]) was 50 to 100 nM.
The same measure, in the same setting: the value for `CCONCC(=O)N[C@H]1CCc2c(C)c(F)cc3nc4c(c1c23)Cn1c-4cc2c(c1=O)COC(=O)[C@]2(O)CC` [Compound 12, 2-ethoxyaminoacetyl exatecan] was 50 to 100 nM.
Turning to `CC[C@@]1(O)C(=O)OCc2c1cc1n(c2=O)Cc2c-1nc1cc(F)c(C)c3c1c2[C@@H](NC(=O)C1(N)COC1)CC3` [Compound 13, 3-aminooxetane-3-acetyl exatecan], the IC50 was below 50 nM in experiment [1], below 50 nM in experiment [2] (setting [3]) and below 10 nM in experiment [2] (setting [4]).
For `CC[C@@]1(O)C(=O)OCc2c1cc1n(c2=O)Cc2c-1nc1cc(F)c(C)c3c1c2[C@@H](NC(=O)CO)CC3` [Dxd, reference compound], the IC50 in experiment [1] and in experiment [2] (setting [3]) was below 50 nM in each case.
